Patent publication US20230322761A1, “DEGRADATION OF BRUTON'S TYROSINE KINASE (BTK) BY CONJUGATION OF BTK INHIBITORS WITH E3 LIGASE LIGAND AND METHODS OF USE” (BEIGENE, LTD., priority 2020, published 2023)

Target: T1, BTK (Homo sapiens, UniProt Q06187)
T1 construct: endogenous in cells; host or cells: TMD-8 cells
Assay: BTK degradation in TMD-8 cells, HTRF assay after 6 h treatment
Type: cell-based
Details: for DC50: IC50 (DC50) of BTK degradation; for Dmax: TMD8, maximum percentage of inhibition (degradation)
In short: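 TMD-8 cells treated for 6 h with 8 compound doses in 6-fold dilution steps from a 1 mM 500× DMSO stock (0.2% DMSO), then lysed 30 min at room temperature. BTK in lysate detected by HTRF (665/620 nm) after overnight antibody incubation; DC50 from four-parameter curve fit.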

T1 sequence (Q06187 whole entry): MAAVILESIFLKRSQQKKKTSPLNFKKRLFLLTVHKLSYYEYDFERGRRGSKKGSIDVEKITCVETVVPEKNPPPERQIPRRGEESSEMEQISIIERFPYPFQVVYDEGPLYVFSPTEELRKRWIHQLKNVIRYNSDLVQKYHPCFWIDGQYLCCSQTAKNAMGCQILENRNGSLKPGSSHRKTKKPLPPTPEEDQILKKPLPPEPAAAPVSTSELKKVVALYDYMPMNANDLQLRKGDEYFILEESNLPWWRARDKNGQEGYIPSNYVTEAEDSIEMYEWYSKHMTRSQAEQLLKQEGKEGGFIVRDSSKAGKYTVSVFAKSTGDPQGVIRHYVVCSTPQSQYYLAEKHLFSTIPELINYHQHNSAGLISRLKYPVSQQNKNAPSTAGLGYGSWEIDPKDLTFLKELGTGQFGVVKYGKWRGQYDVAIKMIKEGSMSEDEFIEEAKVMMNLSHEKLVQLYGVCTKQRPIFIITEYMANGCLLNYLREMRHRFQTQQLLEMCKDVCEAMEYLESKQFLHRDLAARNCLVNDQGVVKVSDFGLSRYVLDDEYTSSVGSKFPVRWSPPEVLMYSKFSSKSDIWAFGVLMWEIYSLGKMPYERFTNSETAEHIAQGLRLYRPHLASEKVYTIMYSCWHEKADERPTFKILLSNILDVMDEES

Which results are given for Cc1cc(-c2n[nH]c3ncc(-c4ccc(C5CCN(CC6CCN(c7ccc(N8CCC(=O)NC8=O)cc7)CC6)CC5)cc4)cc23)ccc1CNC(=O)c1nc(C(C)(C)C)no1 [Example 4, 3-(tert-butyl)-N-(4-(5-(4-(1-((1-(4-(2,4-dioxotetrahydropyrimidin-1(2H)-yl)phenyl)piperidin-4-yl)methyl)piperidin-4-yl)phenyl)-1H-pyrazolo[3,4-b]pyridin-3-yl)-2-methylbenzyl)-1,2,4-oxadiazole-5-carboxamide]?
DC50: 1.19 nM; Dmax: 96.7%

With Cc1cc(-c2n[nH]c3ncc(-c4ccc(N5CCN(CC6CCN(c7ccc(N8CCC(=O)NC8=O)cc7)CC6)CC5)cc4)cc23)ccc1[C@@H](C)NC(=O)c1nnc(C(C)(C)C)o1 [Example 225, (R)-5-(tert-butyl)-N-(1-(4-(5-(4-(4-((1-(4-(2,4-dioxotetrahydropyrimidin-1(2H)-yl)phenyl)piperidin-4-yl)methyl)piperazin-1-yl)phenyl)-1H-pyrazolo[3,4-b]pyridin-3-yl)-2-methylphenyl)ethyl)-1,3,4-oxadiazole-2-carboxamide] as the molecule, how does the DC50 read?
The DC50 was 9.45 nM.

For Cc1cc(-c2n[nH]c3ncc(-c4ccc(N5CCN(CC6CCN(c7ccc(N8CCC(=O)NC8=O)cc7)CC6)CC5)cn4)cc23)ccc1CNC(=O)c1noc(C(C)(C)C)n1 [Example 66, 5-(tert-butyl)-N-(4-(5-(5-(4-((1-(4-(2,4-dioxotetrahydropyrimidin-1(2H)-yl)phenyl)piperidin-4-yl)methyl)piperazin-1-yl)pyridin-2-yl)-1H-pyrazolo[3,4-b]pyridin-3-yl)-2-methylbenzyl)-1,2,4-oxadiazole-3-carboxamide], which DC50 is on record?
Its DC50 is 5.32 nM.

Which results are given for COc1ccc(C(=O)N2CCC(c3ccc(-c4cnc5[nH]nc(-c6ccc(CNC(=O)c7nc(C(C)(C)C)no7)c(F)c6)c5c4)cc3)CC2)cc1N1CCC(=O)NC1=O [Example 18, 3-(tert-butyl)-N-(4-(5-(4-(1-(3-(2,4-dioxotetrahydropyrimidin-1(2H)-yl)-4-methoxybenzoyl)piperidin-4-yl)phenyl)-1H-pyrazolo[3,4-b]pyridin-3-yl)-2-fluorobenzyl)-1,2,4-oxadiazole-5-carboxamide]?
DC50: > 2000 nM; Dmax: 3.39%

How did the DC50 turn out when Cc1cc(CCN2CCN(c3ccc(-c4cnc5[nH]nc(-c6ccc([C@@H](C)NC(=O)c7noc(C(C)(C)C)n7)c(C)c6)c5c4)cc3)CC2)ccc1C1CCC(=O)NC1=O (stereo partly drawn) [Example 40, 5-(tert-butyl)-N-((1R)-1-(4-(5-(4-(4-(4-(2,6-dioxopiperidin-3-yl)-3-methylphenethyl)piperazin-1-yl)phenyl)-1H-pyrazolo[3,4-b]pyridin-3-yl)-2-methylphenyl)ethyl)-1,2,4-oxadiazole-3-carboxamide] was run?
Its DC50 is 7.32 nM.

How did the DC50 turn out when Cc1cc(-c2n[nH]c3ncc(-c4ccc(N5CC6CC5CN6CC5CCN(c6ccc(N7CCC(=O)NC7=O)cc6)CC5)cn4)cc23)ccc1[C@@H](C)NC(=O)c1noc(C(C)(C)C)n1 (stereo partly drawn) [Example 127, 5-(tert-butyl)-N-((1R)-1-(4-(5-(5-(5-((1-(4-(2,4-dioxotetrahydropyrimidin-1(2H)-yl)phenyl)piperidin-4-yl)methyl)-2,5-diazabicyclo[2.2.1]heptan-2-yl)pyridin-2-yl)-1H-pyrazolo[3,4-b]pyridin-3-yl)-2-methylphenyl)ethyl)-1,2,4-oxadiazole-3-carboxamide] was run?
The DC50 was 6.79 nM.

How did the DC50 turn out when Cc1cc(-c2n[nH]c3ncc(-c4ccc(C5CCN(CCc6ccc(C7CCC(=O)NC7=O)cc6)CC5)cc4)cc23)ccc1CNC(=O)c1nc(C(C)(C)C)no1 (stereo not shown) [Example 9, 3-(tert-butyl)-N-(4-(5-(4-(1-(4-(2,6-dioxopiperidin-3-yl)phenethyl)piperidin-4-yl)phenyl)-1H-pyrazolo[3,4-b]pyridin-3-yl)-2-methylbenzyl)-1,2,4-oxadiazole-5-carboxamide] was run?
The DC50 was 1.9 nM.

And the Dmax?
Its Dmax is 100%.

Which DC50 does the source give for Cc1cc(-c2n[nH]c3ncc(-c4ccc(N5CCN(CCc6ccc(C7CCC(=O)NC7=O)c(F)c6)CC5)cn4)cc23)ccc1[C@@H](C)NC(=O)c1noc(C(C)(C)C)n1 (stereo partly drawn) [Example 146, 5-(tert-butyl)-N-((1R)-1-(4-(5-(5-(4-(4-(2,6-dioxopiperidin-3-yl)-3-fluorophenethyl)piperazin-1-yl)pyridin-2-yl)-1H-pyrazolo[3,4-b]pyridin-3-yl)-2-methylphenyl)ethyl)-1,2,4-oxadiazole-3-carboxamide] here?
The DC50 was 1.74 nM.

With Cc1cc(CCN2CCN(c3ccc(-c4cnc5[nH]nc(-c6ccc([C@@H](C)NC(=O)c7noc(C(C)(C)C)n7)c(C)c6)c5c4)cc3)CC2)ncc1C1CCC(=O)NC1=O (stereo partly drawn) [Example 141, 5-(tert-butyl)-N-((1R)-1-(4-(5-(4-(4-(2-(5-(2,6-dioxopiperidin-3-yl)-4-methylpyridin-2-yl)ethyl)piperazin-1-yl)phenyl)-1H-pyrazolo[3,4-b]pyridin-3-yl)-2-methylphenyl)ethyl)-1,2,4-oxadiazole-3-carboxamide] as the molecule, how does the DC50 read?
The DC50 was 3.27 nM.

Which DC50 does the source give for CC(C)(C)c1noc(C(=O)NCc2ccc(-c3n[nH]c4ncc(-c5ccc(C6CCN(CCC7CCN(c8ccc(N9CCC(=O)NC9=O)cc8)CC7)CC6)cc5)cc34)cc2F)n1 [Example 12, 3-(tert-butyl)-N-(4-(5-(4-(1-(2-(1-(4-(2,4-dioxotetrahydropyrimidin-1(2H)-yl)phenyl)piperidin-4-yl)ethyl)piperidin-4-yl)phenyl)-1H-pyrazolo[3,4-b]pyridin-3-yl)-2-fluorobenzyl)-1,2,4-oxadiazole-5-carboxamide] here?
The DC50 was 5.17 nM.

And the Dmax?
Its Dmax is 95.7%.

For Cc1cc(-c2n[nH]c3ncc(-c4ccc(N5CCN(C6CC(c7ccc([C@@H]8CCC(=O)NC8=O)cc7)C6)CC5)cc4)cc23)ccc1[C@@H](C)NC(=O)c1noc(C(C)(C)C)n1 (stereo partly drawn) [Example 209, 5-(tert-butyl)-N—((R)-1-(4-(5-(4-(4-((1R,3s)-3-(4-((S)-2,6-dioxopiperidin-3-yl)phenyl)cyclobutyl)piperazin-1-yl)phenyl)-1H-pyrazolo[3,4-b]pyridin-3-yl)-2-methylphenyl)ethyl)-1,2,4-oxadiazole-3-carboxamide], which DC50 is on record?
The DC50 was 13.6 nM.

For COc1cc(OCCCN2CCN(c3ccc(-c4cnc5[nH]nc(-c6ccc([C@@H](C)NC(=O)c7noc(C(C)(C)C)n7)c(C)c6)c5c4)cc3)CC2)ccc1NC1CCC(=O)NC1=O (stereo partly drawn) [Example 130, 5-(tert-butyl)-N-((1R)-1-(4-(5-(4-(4-(3-(4-((2,6-dioxopiperidin-3-yl)amino)-3-methoxyphenoxy)propyl)piperazin-1-yl)phenyl)-1H-pyrazolo[3,4-b]pyridin-3-yl)-2-methylphenyl)ethyl)-1,2,4-oxadiazole-3-carboxamide], which DC50 is on record?
The DC50 was 5.28 nM.

For Cc1cc(-c2n[nH]c3ncc(-c4ccc(C5CCN(CCc6ccc(C7CCC(=O)NC7=O)cc6)CC5)cc4)cc23)ccc1[C@@H](C)NC(=O)c1noc(C(C)(C)C)n1 (stereo partly drawn) [Example 227, 5-(tert-butyl)-N-((1R)-1-(4-(5-(4-(1-(4-(2,6-dioxopiperidin-3-yl)phenethyl)piperidin-4-yl)phenyl)-1H-pyrazolo[3,4-b]pyridin-3-yl)-2-methylphenyl)ethyl)-1,2,4-oxadiazole-3-carboxamide], which DC50 is on record?
Its DC50 is 3.93 nM.

With COc1cc(OCCCN2CCN(c3ccc(-c4cnc5[nH]nc(-c6ccc([C@@H](C)NC(=O)c7nc(C(C)(C)C)no7)c(C)c6)c5c4)cc3)CC2)ccc1N1CCC(=O)NC1=O [Example 118, (R)-3-(tert-butyl)-N-(1-(4-(5-(4-(4-(3-(4-(2,4-dioxotetrahydropyrimidin-1(2H)-yl)-3-methoxyphenoxy)propyl)piperazin-1-yl)phenyl)-1H-pyrazolo[3,4-b]pyridin-3-yl)-2-methylphenyl)ethyl)-1,2,4-oxadiazole-5-carboxamide] as the molecule, how does the DC50 read?
Its DC50 is 8.07 nM.

Which DC50 does the source give for Cc1cc(-c2n[nH]c3ncc(-c4ccc(N5CC6CC5CN6CCc5ccc(N6CCC(=O)NC6=O)cc5)cn4)cc23)ccc1[C@@H](C)NC(=O)c1noc(C(C)(C)C)n1 (stereo partly drawn) [Example 132, 5-(tert-butyl)-N-((1R)-1-(4-(5-(5-(5-(4-(2,4-dioxotetrahydropyrimidin-1(2H)-yl)phenethyl)-2,5-diazabicyclo[2.2.1]heptan-2-yl)pyridin-2-yl)-1H-pyrazolo[3,4-b]pyridin-3-yl)-2-methylphenyl)ethyl)-1,2,4-oxadiazole-3-carboxamide] here?
The DC50 was > 2000 nM.

Which DC50 does the source give for Cc1cc(-c2n[nH]c3ncc(-c4ccc(N5CCN(CC6CCN(c7ccc(N8CCC(=O)NC8=O)cc7)CC6)CC5)cc4)cc23)ccc1CNC(=O)c1noc(C(C)(C)C(F)(F)F)n1 [Example 41, N-(4-(5-(4-(4-((1-(4-(2,4-dioxotetrahydropyrimidin-1(2H)-yl)phenyl)piperidin-4-yl)methyl)piperazin-1-yl)phenyl)-1H-pyrazolo[3,4-b]pyridin-3-yl)-2-methylbenzyl)-5-(1,1,1-trifluoro-2-methylpropan-2-yl)-1,2,4-oxadiazole-3-carboxamide] here?
Its DC50 is 7.05 nM.

For Cc1cc(-c2n[nH]c3ncc(-c4ccc(N5CCN(CC6CCN(c7ccc(N8CCC(=O)NC8=O)cc7)CC6)CC5)cc4)cc23)ccc1[C@@H](C)NC(=O)c1ccc(C(C)(C)O)cc1F [Example 96, (R)—N-(1-(4-(5-(4-(4-((1-(4-(2,4-dioxotetrahydropyrimidin-1(2H)-yl)phenyl)piperidin-4-yl)methyl)piperazin-1-yl)phenyl)-1H-pyrazolo[3,4-b]pyridin-3-yl)-2-methylphenyl)ethyl)-2-fluoro-4-(2-hydroxypropan-2-yl)benzamide], which DC50 is on record?
Its DC50 is > 2000 nM.

Which DC50 does the source give for Cc1cc(-c2n[nH]c3ncc(-c4ccc(N5CCN(CC6CCN(c7ccc(N8CC(=O)NC8=O)cc7)CC6)CC5)cc4)cc23)ccc1[C@@H](C)NC(=O)c1nc(C(C)(C)C)no1 [Example 218, (R)-3-(tert-butyl)-N-(1-(4-(5-(4-(4-((1-(4-(2,4-dioxoimidazolidin-1-yl)phenyl)piperidin-4-yl)methyl)piperazin-1-yl)phenyl)-1H-pyrazolo[3,4-b]pyridin-3-yl)-2-methylphenyl)ethyl)-1,2,4-oxadiazole-5-carboxamide] here?
The DC50 was 19 nM.
